{"source": "paper PMC12497738", "about": "“Linear and conformational epitopes of vicilin-buried peptides as a model for improved nut allergy diagnostics” (Frontiers in Allergy, 2025)", "origin": "cited, not measured here", "test_system": "6D12 monoclonal antibody", "conditions": "N-terminal helix, amino acids 21–36 of folded JR2.1; unpublished communications by Dr. Geoffrey Mueller (NIEHS); ref [16]", "from_the_text": "The mature vicilin domains in Figure 1A are labeled Jug r 2 and Ara h 1. A human monoclonal IgE antibody (6D12) was used to assess IgE binding to conformational epitopes in JR2LS and its three constituent VBPs using ciELISA (Figures 1B,C). […] With this method, a known immunodominant epitope of Ara h 2 was used to identify a cross-reactive, linear epitope in the JR2LS ([16]). The IgE binding regions identified in this study overlap or are near the previously described epitope containing areas, emphasizing the relevance of JR2LS VBPs as clinically relevant IgE targets ([16], [17]). Here, ELISA, linear peptide microarray, and computational analysis were used to ...", "note": "“Also recorded” adds a separate entry of the source.", "data": [{"sequence": "CQEYCRRQGQGQRQQ [peptide 5, …, N-terminal helix, amino acids 21–36 of the folded JR2.1]", "values": [{"measurement": "Binding of 6D12 to peptide 5, in words", "result": "specific binding; also recorded: the primary target of 6D12"}]}]}
